The target of this assay is T1, human glucocorticoid receptor (GR) complex (Homo sapiens, UniProt P04150).
T1 construct: made in house; host or cells: insect cells (baculovirus expression), used as crude lysate
T1 sequence (P04150 1-777): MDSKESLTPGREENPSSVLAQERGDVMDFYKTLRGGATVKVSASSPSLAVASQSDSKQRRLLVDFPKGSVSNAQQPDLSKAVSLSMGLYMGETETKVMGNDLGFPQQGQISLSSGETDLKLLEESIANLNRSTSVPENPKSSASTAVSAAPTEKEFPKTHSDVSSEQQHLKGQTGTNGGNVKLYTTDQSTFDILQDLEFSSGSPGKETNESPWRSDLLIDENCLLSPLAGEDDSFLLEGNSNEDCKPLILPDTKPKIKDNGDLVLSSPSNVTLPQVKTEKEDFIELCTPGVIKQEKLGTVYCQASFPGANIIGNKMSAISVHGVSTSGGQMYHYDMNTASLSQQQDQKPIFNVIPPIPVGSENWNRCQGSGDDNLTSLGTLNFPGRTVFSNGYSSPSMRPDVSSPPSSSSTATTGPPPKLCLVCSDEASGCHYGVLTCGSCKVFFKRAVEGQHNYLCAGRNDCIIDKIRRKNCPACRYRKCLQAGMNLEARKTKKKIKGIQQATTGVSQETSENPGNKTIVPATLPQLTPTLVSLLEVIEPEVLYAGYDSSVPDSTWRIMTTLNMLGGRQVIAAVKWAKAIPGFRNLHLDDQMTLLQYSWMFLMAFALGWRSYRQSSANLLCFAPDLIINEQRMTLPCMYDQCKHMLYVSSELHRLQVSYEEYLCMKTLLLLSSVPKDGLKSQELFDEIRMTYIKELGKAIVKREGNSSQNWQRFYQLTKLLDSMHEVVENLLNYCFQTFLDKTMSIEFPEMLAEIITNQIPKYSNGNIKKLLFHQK
The assay can be described thus: Glucocorticoid receptor competitive binding assay (fluorescence polarization, TAMRA-labeled dexamethasone probe). The conditions noted are these: result in words only; IC50 values not given. As to the method:
Compounds of the invention were evaluated for binding to the steroid receptor by a fluorescence polarization competitive binding assay.
A. Glucocorticoid Receptor Competitive Binding Assay
Step 1. Characterization of the Fluorescent Probe
The wavelengths for maximum excitation and emission of the fluorescent probe should first be measured. An example of such a probe is rhodamine (TAMRA)-labeled dexamethasone.
The affinity of the probe for the steroid receptor was then determined in a titration experiment. The fluorescence polarization value of the probe in assay buffer was measured on an SLM-8100 fluorometer using the excitation and emission maximum values described above. Aliquots of expression vector lysate were added and fluorescence polarization was measured after each addition until no further change in polarization value was observed. Non-linear least squares regression analysis was used to calculate the dissociation constant of the probe from the polarization values obtained for lysate binding to the probe.
Step 2. Screening for Inhibitors of Probe Binding
This assay uses fluorescence polarization (FP) to quantitate the ability of test compounds to compete with tetramethyl rhodamine (TAMRA)-labeled dexamethasone for binding to a human glucocorticoid receptor (GR) complex prepared from an insect expression system. The assay buffer was: 10 mM TES, 50 mM KCl, 20 mM Na2MoO4.2H2O, 1.5 mM EDTA, 0.04% w/v CHAPS, 10% v/v glycerol, 1 mM dithiothreitol, pH 7.4. Test compounds were dissolved to 1 mM in neat DMSO and then further diluted to 10× assay concentration in assay buffer supplemented with 10% v/v DMSO. Test compounds were serially diluted at 10× assay concentrations in 10% DMSO-containing buffer in 96-well polypropylene plates. Binding reaction mixtures were prepared in 96-well black Dynex microtiter plates by sequential addition of the following assay components to each well: 15 μL of 10× test compound solution, 85 μL of GR-containing baculovirus lysate diluted 1:170 in assay buffer, and 50 μL of 15 nM TAMRA-labeled dexamethasone. Positive controls were reaction mixtures containing no test compound; negative controls (blanks) were reaction mixtures containing 0.7 μM to 2 μM dexamethasone. […] IC50 values were determined by iterative non-linear curve fitting of the FP signal data to a 4-parameter logistic equation.
For orientation: Fluorescence polarisation rises when a labelled molecule tumbles more slowly, as on binding a larger partner.
Consider `CC(C)(CC(O)(Cc1ccccc1Br)C(=O)Nc1ccc2c(c1)COC2=O)c1cc(F)ccc1O` (stereo not drawn) [2-(2-Bromobenzyl)-4-(5-fluoro-2-hydroxyphenyl)-2-hydroxy-4-methylpentanoic acid (1-oxo-1,3-dihydroisobenzofuran-5-yl)amide], for which the “activity in the GR binding assay” value was “potent activity”. For `COc1ccc(F)cc1C(C)(C)CC(O)(Cc1ccccc1Br)C(=O)Nc1ccc2c(c1)COC2=O` (stereo not drawn) [2-(2-Bromobenzyl)-4-(5-fluoro-2-methoxyphenyl)-2-hydroxy-4-methylpentanoic acid (1-oxo-1,3-dihydroisobenzofuran-5-yl)amide], the “activity in the GR binding assay” value is on record as “potent activity”.

Turning to `CC(C)(CC(O)(Cc1ccccc1Cl)C(=O)Nc1ccc2c(c1)COC2=O)c1cc(F)ccc1O` (stereo not drawn) [2-(2-Chlorobenzyl)-4-(5-fluoro-2-hydroxyphenyl)-2-hydroxy-4-methylpentanoic acid (1-oxo-1,3-dihydroisobenzofuran-5-yl)amide], the “activity in the GR binding assay” value is “potent activity”. To `COc1ccc(F)cc1C(C)(C)CC(O)(Cc1ccccc1Cl)C(=O)Nc1ccc2c(c1)COC2=O` (stereo not drawn) [2-(2-Chlorobenzyl)-4-(5-fluoro-2-methoxyphenyl)-2-hydroxy-4-methylpentanoic acid (1-oxo-1,3-dihydroisobenzofuran-5-yl)amide] belongs “potent activity”. As for `CC(C)(CC(O)(Cc1ccccc1F)C(=O)Nc1ccc2c(c1)COC2=O)c1cc(F)ccc1O` (stereo not drawn) [2-(2-Fluorobenzyl)-4-(5-fluoro-2-hydroxyphenyl)-2-hydroxy-4-methylpentanoic acid (1-oxo-1,3-dihydroisobenzofuran-5-yl)amide], the entry is “potent activity”. To `COc1ccc(F)cc1C(C)(C)CC(O)(Cc1ccccc1F)C(=O)Nc1ccc2c(c1)COC2=O` (stereo not drawn) [2-(2-Fluorobenzyl)-4-(5-fluoro-2-methoxyphenyl)-2-hydroxy-4-methylpentanoic acid (1-oxo-1,3-dihydroisobenzofuran-5-yl)amide] belongs “potent activity”; to `CC(C)(CC(O)(Cc1ccc(F)c(F)c1)C(=O)Nc1ccc2c(c1)COC2=O)c1cc(F)ccc1O` (stereo not drawn) [2-(3,4-Difluorobenzyl)-4-(5-fluoro-2-hydroxyphenyl)-2-hydroxy-4-methylpentanoic acid (1-oxo-1,3-dihydroisobenzofuran-5-yl)amide], “potent activity”. Turning to `COc1ccc(F)cc1C(C)(C)CC(O)(Cc1cccc(F)c1)C(=O)Nc1ccc2c(c1)COC2=O` (stereo not drawn) [2-(3-Fluorobenzyl)-4-(5-fluoro-2-methoxyphenyl)-2-hydroxy-4-methylpentanoic acid (1-oxo-1,3-dihydroisobenzofuran-5-yl)amide], the “activity in the GR binding assay” value was “potent activity”. Regarding `CC(C)(CC(O)(Cc1ccc(F)cc1)C(=O)Nc1ccc2c(c1)COC2=O)c1cc(F)ccc1O` (stereo not drawn) [2-(4-Fluorobenzyl)-4-(5-fluoro-2-hydroxyphenyl)-2-hydroxy-4-methylpentanoic acid (1-oxo-1,3-dihydroisobenzofuran-5-yl)amide], the “activity in the GR binding assay” value is “potent activity”.

Turning to `Cc1noc(=O)c2ccc(NC(=O)C(O)(Cc3ccccc3)CC(C)(C)c3cc(F)ccc3O)cc12` (stereo not drawn) [2-Benzyl-4-(5-fluoro-2-hydroxyphenyl)-2-hydroxy-4-methylpentanoic acid (4-methyl-1-oxo-1H-benzo[d][1,2]oxazin-6-yl)amide], the “activity in the GR binding assay” value is “potent activity”. For `COc1ccc(F)cc1C(C)(C)CC(O)(Cc1ccccc1)C(=O)Nc1ccc2c(c1)COC2=O` (stereo not drawn) [2-Benzyl-4-(5-fluoro-2-methoxyphenyl)-2-hydroxy-4-methylpentanoic acid (1-oxo-1,3-dihydroisobenzofuran-5-yl)amide], the “activity in the GR binding assay” value is “potent activity”. Take `COc1ccc(F)cc1C(C)(C)CC(O)(Cc1ccccc1)C(=O)Nc1ccc2c(=O)onc(C)c2c1` (stereo not drawn) [2-Benzyl-4-(5-fluoro-2-methoxyphenyl)-2-hydroxy-4-methylpentanoic acid (4-methyl-1-oxo-1H-benzo[d][1,2]oxazin-6-yl)amide]: the “activity in the GR binding assay” value is reported as “potent activity”. To `Cc1noc(=O)c2ccc(NC(=O)C(O)(CC3CCCCC3)CC(C)(C)c3ccccc3)cc12` (stereo not drawn) [2-Cyclohexylmethyl-2-hydroxy-4-methyl-4-phenylpentanoic acid (4-methyl-1-oxo-1H-benzo[d][1,2]oxazin-6-yl)amide] belongs “potent activity”. To `CC(C)(CC(O)(CC1CCCCC1)C(=O)Nc1ccc2c(c1)COC2=O)c1cc(F)ccc1O` (stereo not drawn) [2-Cyclohexylmethyl-4-(5-fluoro-2-hydroxyphenyl)-2-hydroxy-4-methylpentanoic acid (1-oxo-1,3-dihydroisobenzofuran-5-yl)amide] belongs “potent activity”. As for `COc1ccc(F)cc1C(C)(C)CC(O)(CC1CCCCC1)C(=O)Nc1ccc2c(c1)COC2=O` (stereo not drawn) [2-Cyclohexylmethyl-4-(5-fluoro-2-methoxyphenyl)-2-hydroxy-4-methylpentanoic acid (1-oxo-1,3-dihydroisobenzofuran-5-yl)amide], the entry is “potent activity”. In the case of `COc1ccc(F)cc1C(C)(C)CC(O)(CC1CCCCC1)C(=O)Nc1ccc2c(=O)onc(C)c2c1` (stereo not drawn) [2-Cyclohexylmethyl-4-(5-fluoro-2-methoxyphenyl)-2-hydroxy-4-methylpentanoic acid (4-methyl-1-oxo-1H-benzo[d][1,2]oxazin-6-yl)amide], the “activity in the GR binding assay” value is recorded as “potent activity”.

For the compound `CC(C)(CC(O)(C(=O)Nc1ccc2c(c1)COC2=O)C1CCCC1)c1cc(F)ccc1O` (stereo not drawn) [2-Cyclopentyl-4-(5-fluoro-2-hydroxyphenyl)-2-hydroxy-4-methylpentanoic acid (1-oxo-1,3-dihydroisobenzofuran-5-yl)amide], the “activity in the GR binding assay” value is “potent activity”.

As for `CC(C)(CC(O)(CC1CCCC1)C(=O)Nc1ccc2c(c1)COC2=O)c1cc(F)ccc1O` (stereo not drawn) [2-Cyclopentylmethyl-4-(5-fluoro-2-hydroxyphenyl)-2-hydroxy-4-methylpentanoic acid (1-oxo-1,3-dihydroisobenzofuran-5-yl)amide], the “activity in the GR binding assay” value is “potent activity”. To `CC(C)(CC(O)(CC(C)(C)c1ccccc1)C(=O)Nc1ccc2c(c1)COC2=O)c1ccccc1` [2-Hydroxy-4-methyl-2-(2-methyl-2-phenylpropyl)-4-phenylpentanoic acid (1-oxo-1,3-dihydroisobenzofuran-5-yl)amide] belongs “potent activity”. To `CC(C)(CC(O)(Cc1ccccc1O)C(=O)Nc1ccc2c(c1)COC2=O)c1cc(F)ccc1O` (stereo not drawn) [4-(5-Fluoro-2-hydroxyphenyl)-2-hydroxy-2-(2-hydroxybenzyl)-4-methylpentanoic acid (1-oxo-1,3-dihydroisobenzofuran-5-yl)amide] belongs “potent activity”. As for `CC(c1ccccc1)C(O)(CC(C)(C)c1cc(F)ccc1O)C(=O)Nc1ccc2c(c1)COC2=O` (stereo not drawn) [4-(5-Fluoro-2-hydroxyphenyl)-2-hydroxy-4-methyl-2-(1-phenylethyl)pentanoic acid (1-oxo-1,3-dihydroisobenzofuran-5-yl)amide], the entry is “potent activity”.

(Values after US7189758B2, “Glucocorticoid mimetics, methods of making them, pharmaceutical formulations, and uses thereof” (Boehringer Ingelheim Pharmaceuticals, Inc., priority 2002, dated 2007).)
